Results: patent US20190328891A1, “MEDICAL PREPARATION WITH A CARRIER BASED ON HYALURONAN AND/OR DERIVATIVES THEREOF, METHOD OF PREPARATION AND USE THEREOF” (CONTIPRO A.S., priority 2016, published 2019)
Square brackets hold non-standard residues; d marks the D form. Nle = CCCC[C@H](N)C(=O)O

Tests used:
injured skin = settings: rabbits, alginate bandage containing the peptide; in comparison with Ser-Ile-Lys-Val-Ala-Val and Val-Pro-Val-Ala-Pro-Gly anchored on alginate bandage; cited from earlier work
[1] = tested on: Primary human fibroblasts (NHDF); experiment: In vitro cell adhesion on the fibre comprising RGD motif; assay type: cell-based; settings: fibre of native HYA with bonded peptide; DiI stained NHDF, 10^5 cells; fluorescent microscope; monitored for 7 days of cultivation (FIG. 6)
Description: The fibre of native HYA comprising RGD motif, prepared according to the procedure described in Example 14, and control fibres were cut into 1 cm pieces and transferred onto a non-adhesive panel with 24 wells. Primary human fibroblasts (NHDF) were pre-marked with the fluorescent dye DiI (Exmax/Emmax 549/565) and inoculated, in the amount of 10^5 cells, into the wells filled with the tested samples. Then the panel was shaken by a shaker (5 hrs/160 rpm) to keep the cells in suspension, under cultivation conditions (37° C., 5% CO2). After 24 h of cultivation the fibres were transferred into a well with fresh cultivation medium. Then the cells were observed and detected by fluorescent microscope Nikon Ti-Eclipse with the use of TRITC filter (Exmax/Emmax, 549/565). The fibroblasts proliferation was monitored for 7 days of cultivation.

| Substance | epithelization (injured skin) | volume of regenerated tissue (injured skin) | adhesion and proliferation of human dermal fibroblasts on the fibre [1] |
| --- | --- | --- | --- |
| Ser-Ile-Arg-Val-X-Val-X-Pro-Gly (where X=Ala or Gly) | significantly higher | larger | – |
| H-Gly-Gly-Gly-Arg-Gly-Asp-Nle-O-HYA (H-GGGRGD[Nle]-{O‑hyaluronan}) [H-Gly-Gly-Gly-Arg-Gly-Asp-Nle-OH, peptide with triglycine and RGD anchored to native hyaluronan fibre] | – | – | did not support the cell adhesion |
| H-Arg-Gly-Asp-Gly-Gly-Gly-Nle-O-HYA (H-RGDGGG[Nle]-{O‑hyaluronan}) [H-Arg-Gly-Asp-Gly-Gly-Gly-Nle-OH, RGD peptide linked to native hyaluronan fibre via triglycine linker] | – | – | did not support the cell adhesion |
| H-Ahx-Ahx-Arg-Gly-Asp-Nle-O-HYA [H-Ahx-Ahx-Arg-Gly-Asp-Nle-OH] | – | – | did not support the cell adhesion |
